ChEMBL document CHEMBL2095176, “GSK Tuberculosis Screening Data”
In brackets after ≈: the same amount, converted by molar mass.

system: Mycobacterium tuberculosis variant bovis BCG; assay: microbe, parasite or virus in culture; type: functional

Row | SMILES | MIC90 [µM]
1 | O=C(c1cnn(C(=O)c2ccco2)c1)c1cc(F)ccc1O | 4.2 (≈ 1.26 µg/mL)
2 | CC(Oc1ccccc1)C(=O)Nc1nc(-c2ccccn2)cs1 (stereo not given) | 5.4 (≈ 1.76 µg/mL)
3 | Cc1ccc(-c2nnc(C)c(N3CCCC3)n2)cc1 | 10 (≈ 2.54 µg/mL)
4 | FC(F)(F)c1nnc2ccc(Cl)nn12 | 6.6 (≈ 1.47 µg/mL)
5 | Nc1nc(N)c2c(Sc3ccc4ccccc4c3)cccc2n1 | 4.4 (≈ 1.4 µg/mL)
6 | CN(Cc1ccccc1)c1ccc2nnc(-c3ccccc3)n2n1 | 9.9 (≈ 3.12 µg/mL)
7 | O=C(Cc1ccc(F)cc1)Nc1nc(-c2ccccn2)cs1 | 8.9 (≈ 2.79 µg/mL)
8 | COc1cc(CN2CCC3(C=Cc4ccccc43)CC2)cc2c1OCO2 | 3.1 (≈ 1.08 µg/mL)
9 | Fc1cccc(-c2nc(NCC3COc4ccccc4O3)no2)c1F (stereo not given) | 9.2 (≈ 3.18 µg/mL)
10 | O=C(NNC(=O)c1cc2cc([N+](=O)[O-])ccc2s1)c1cccs1 | 9.2 (≈ 3.2 µg/mL)
11 | CCOc1ccc(C(=O)Nc2cc(Cl)c3c(c2)CNCC3)cc1C(C)=O | 9.2 (≈ 3.43 µg/mL)
12 | Cc1cnc(N2CCN[C@@H](Cc3ccccc3)C2)nc1Oc1ccc(-n2ccnc2)cc1.O=C(O)C(F)(F)F | 8.1
13 | CCCCc1ccc(C(=O)Nc2nccc3ccccc23)nc1 | 7.2 (≈ 2.2 µg/mL)
14 | Cc1ccc(S(=O)(=O)N2CCC(n3nnc4cc(C(F)(F)F)ccc43)CC2)cc1Cl | 9.3 (≈ 4.27 µg/mL)
15 | NC1CCCN(c2ncnc(-c3ccc4c(c3)CCC4)n2)C1 (stereo not given) | 9.3 (≈ 2.75 µg/mL)
16 | c1ccc(-c2ccc(CNCCn3ccnc3-c3ccccc3)cc2)cc1 | 9.3 (≈ 3.29 µg/mL)
17 | CCOC(=O)c1csc(-c2ccccc2NC(=O)OCC2CCNCC2)n1 | 9.3 (≈ 3.62 µg/mL)
18 | Cn1cc(-c2noc(CCNCCC(C)(C)C)n2)c2ccccc21 | 9.3 (≈ 3.04 µg/mL)
19 | CSc1ccc(-c2nnc(NC(=O)c3cc(Cl)sc3Cl)o2)cc1 | 9.4 (≈ 3.63 µg/mL)
20 | O=C(Nc1cccc2cccnc12)c1cnccn1 | 9.4 (≈ 2.35 µg/mL)
21 | O=C(Cc1c(Cl)cccc1Cl)Nc1nc(-c2ccccn2)cs1 | 9.4 (≈ 3.42 µg/mL)
22 | FC(F)(F)c1ccc2c(N3CCNCC3)ncc(-c3ccsc3)c2n1 | 9.4 (≈ 3.43 µg/mL)
23 | Cc1ccc2c(c1)c(=O)cc(C(F)(F)F)n2CCNC(=O)c1ccccc1F | 9.4 (≈ 3.69 µg/mL)
24 | O=C(CCc1ccsc1)Nc1nc(-c2ccccn2)cs1 | 9.4 (≈ 2.96 µg/mL)
25 | Cc1ccc(C)c2nc(N3CCN(C)CC3)c(C#N)cc12 | 9.4 (≈ 2.64 µg/mL)
26 | Cn1cc(-c2noc(CCN[C@H]3CC[C@H](C)CC3)n2)c2ccccc21 | 9.4 (≈ 3.18 µg/mL)
27 | Nc1cc(OCc2ccccc2)ccc1Nc1ccccc1 | 2.1 (≈ 0.61 µg/mL)

Row | SMILES | MIC90 [µM]
28 | CC1(C)NC(N)=NC(=N)N1OCCCOc1ccc2ccccc2c1 | 9.5 (≈ 3.24 µg/mL)
29 | CC(=O)N(C)c1ccc(Oc2ccnc(NCc3c(C)cccc3C)n2)cc1 | 9.5 (≈ 3.58 µg/mL)
30 | CC1CC(NC(=O)c2ccc(Oc3ccccc3)cc2)CC(C)(C)C1 (stereo not given) | 9.5 (≈ 3.21 µg/mL)
31 | Cc1ccc(NC(=O)c2cccc(Cl)c2F)cc1-c1ccc(C(N)=O)cc1 | 9.5 (≈ 3.64 µg/mL)
32 | COc1ccc2sc(Nc3nc(C)n(-c4ccccc4)c(=O)n3)nc2c1 | 9.5 (≈ 3.47 µg/mL)
33 | CCOc1ccccc1NC(=O)[C@H](Cc1ccccc1)NC(=O)c1cccs1 | 9.5 (≈ 3.75 µg/mL)
34 | Cc1ccc2sc(N(CCCn3ccnc3)C(=O)c3cccs3)nc2c1C | 9.5 (≈ 3.77 µg/mL)
35 | Cc1nc2c(C)cccn2c1C(=O)NCc1ccc2c(c1)OCO2 | 9.5 (≈ 3.07 µg/mL)
36 | CC(C)(C)OC(=O)n1cc(CN2CCC3(CC2)OCCc2sccc23)c2ccccc21 | 9.5 (≈ 4.17 µg/mL)
37 | CC(C)N(C(=O)CSc1nc2cc(Cl)ccc2[nH]1)C(C)C | 9.5 (≈ 3.1 µg/mL)
38 | Cc1cc(N)nc2cc(-c3ccc(CCN)cc3)ccc12 | 9.5 (≈ 2.64 µg/mL)
39 | COc1ccc2cc(C(=O)Nc3ccc(C4CCN(C)CC4)cc3)sc2c1 | 2.9 (≈ 1.1 µg/mL)
40 | CSc1cccc(-c2nnc(NC(=O)c3ccc(Cl)s3)o2)c1 | 9.6 (≈ 3.38 µg/mL)
41 | O=c1c2snc(-c3ccc(F)cc3)c2ncn1Cc1ccc(F)cc1 | 9.6 (≈ 3.41 µg/mL)
42 | Cc1ccc(S(=O)(=O)c2nc(S(=O)(=O)c3ccccc3)sc2Cl)cc1 | 9.6 (≈ 3.97 µg/mL)
43 | C=CCNCCS(=O)(=O)c1cccc(Nc2ncc(-c3cccc(F)c3)cn2)c1 | 9.6 (≈ 3.96 µg/mL)
44 | CCOc1ccc(-c2nnc(NC(=O)c3cnc(Cl)c(Cl)c3)o2)cc1 | 9.6 (≈ 3.64 µg/mL)
45 | CCOc1cc(OCC)c(C(=O)C(C)C)cc1C(=O)Nc1cccc2c1CCN(C)C2 | 9.6 (≈ 4.08 µg/mL)
46 | CCc1ccc(S(=O)(=O)Nc2cc(CN3CCN(CC4CC4)CC3)ccc2C)cc1 | 9.6 (≈ 4.11 µg/mL)
47 | O=C(CSCc1ccc(Cl)cc1)NNC(=O)c1ccncc1 | 9.7 (≈ 3.26 µg/mL)
48 | CC(=O)N1CCN(Cc2ccc(-c3ccc(NS(=O)(=O)c4ccc(C)cc4)cc3)cc2)CC1 | 9.7 (≈ 4.5 µg/mL)
49 | COc1cccc(-c2nc3c(N4CCCC4)cccc3n2CC2CCCN2)n1.O=C(O)C(F)(F)F (stereo not given) | 5.8
50 | Cn1c(=O)c2c([S+](C)[O-])snc2n(C)c1=O (stereo not given) | 5.6 (≈ 1.45 µg/mL)
51 | Cc1cc(CN2CCCN(c3ncc(-c4ccsc4)c4nc(C(F)(F)F)ccc34)CC2)no1 | 9.8 (≈ 4.64 µg/mL)
52 | CC1Sc2ccc(C(=O)N3CCCCC3c3nc4ccccc4s3)cc2NC1=O (stereo not given) | 9.8 (≈ 4.15 µg/mL)
53 | Cc1ccc(CCNC(=O)c2c(-c3ccc(F)cc3F)noc2C)cc1 | 9.8 (≈ 3.49 µg/mL)
54 | CCn1c(NC(=O)Cc2ccc(Cl)cc2)nc2ccccc21 | 9.8 (≈ 3.08 µg/mL)

Row | SMILES | MIC90 [µM]
55 | CS(=O)(=O)Nc1cccc(-c2cnc3[nH]cc(-c4cccc(CCN)c4)c3c2)c1 | 9.8 (≈ 3.98 µg/mL)
56 | O=C(CSc1nc(-c2ccccc2)cs1)NNC(=O)c1cccs1 | 9.8 (≈ 3.68 µg/mL)
57 | O=C(Nc1nnc(-c2ccccc2)o1)c1ccc(Cl)s1 | 9.8 (≈ 3 µg/mL)
58 | Cc1cc(C)cc(Oc2c(C(C)C)c(=O)[nH]c(=O)n2Cc2cc(N)nc(F)c2)c1 | 9.8 (≈ 3.9 µg/mL)
59 | CN1CCc2c(cccc2NC(=O)c2cc(Br)cc3c2OCC3)C1 | 9.8 (≈ 3.8 µg/mL)
60 | CN(C)c1ccc(NC(=O)Nc2cccc3ncccc23)cc1 | 9.8 (≈ 3 µg/mL)
61 | Cc1ccc2nc(SCC(=O)N(C(C)C)C(C)C)[nH]c2c1 | 9.9 (≈ 3.02 µg/mL)
62 | Cc1ccc2nc(C(F)(F)F)c(C(=O)NCc3ncc(C(F)(F)F)cc3Cl)n2c1 | 9.9 (≈ 4.32 µg/mL)
63 | Cc1cc(Br)ccc1-c1ccc(CNCC(C)O)o1 (stereo not given) | 9.9 (≈ 3.21 µg/mL)
64 | CSc1nc2ccccc2n1-c1nccc(N2CCN(CCN)CC2)n1 | 9.9 (≈ 3.66 µg/mL)
65 | O=C(NNC(=O)c1cccs1)c1ccc(OCc2ccccc2)cc1 | 9.9 (≈ 3.49 µg/mL)
66 | CN(C)CCOc1ccc2c(c1)N(C(=O)Cc1ccc(Cl)c(Cl)c1)CC2 | 9.9 (≈ 3.89 µg/mL)
67 | CN(C)CCN(Cc1ccc(-c2cccc(CN)c2)cc1)C(=O)CCC1CCCC1 | 9.9 (≈ 4.04 µg/mL)
68 | CCCCNC(=O)c1cccc(-c2ccc(OCc3ccccc3)cc2)c1 | 9.9 (≈ 3.56 µg/mL)
69 | CCCc1ccc(S(=O)(=O)Nc2cc(CN3CCN(CCC)CC3)ccc2C)cc1 | 9.9 (≈ 4.25 µg/mL)
70 | O=C(NCCCn1nc(Cl)c(N2CCCNCC2)cc1=O)c1ccc(-c2ccccc2)cc1 | 10 (≈ 4.66 µg/mL)
71 | Cc1nn(CC(C)C)c(Cl)c1C(=O)Nc1nc(-c2ccccn2)cs1 | 10 (≈ 3.76 µg/mL)
72 | Oc1ccc(CCNc2nc(NCc3cccc4ccccc34)nc(NC3CCNCC3)n2)cc1 | 10 (≈ 4.7 µg/mL)
73 | O=C(NC1CCN(Cc2ccccc2)C1)c1cccc(-c2ccc(Cl)cc2)c1 (stereo not given) | 10 (≈ 3.91 µg/mL)
74 | Cc1ccc2c(CC(=O)Nc3nc(-c4ccccn4)cs3)coc2c1 | 10 (≈ 3.49 µg/mL)
75 | COc1ccc(-c2cccc(NC(=O)NC3CCCCC3)c2)cn1 | 8.8 (≈ 2.86 µg/mL)
76 | CCn1c(-c2ccccc2)nc2c(-c3ccc(C)cc3)ncc(OCCCN)c21 | 8.8 (≈ 3.4 µg/mL)
77 | c1ccc(CNc2ncc(-c3ccc(CNCC4CCCO4)cc3)cn2)cc1 (stereo not given) | 8.8 (≈ 3.3 µg/mL)
78 | CCCCNC(=O)N1CCN(Cc2cccc3ccccc23)CC1 | 8.8 (≈ 2.86 µg/mL)
79 | Cc1ccc(NC(=O)c2nc(N3CCCN(C)CC3)ccc2Cl)cc1F | 8.8 (≈ 3.32 µg/mL)
80 | Cc1cc(S(=O)(=O)c2ccccc2)cc2c(Nc3ccc(N4CCOCC4)cc3)c(C(N)=O)cnc12 | 8.8 (≈ 4.42 µg/mL)
81 | COc1ccc(OC)c(S(=O)(=O)Nc2ccc(Nc3ccccc3)cc2OC)c1 | 8.8 (≈ 3.65 µg/mL)

Row | SMILES | MIC90 [µM]
82 | Cc1cc(C)c2cc(CN(Cc3cccnc3)C(=O)c3ccccc3)c(Cl)nc2c1 | 8.8 (≈ 3.66 µg/mL)
83 | CNC(=O)c1cc(Nc2ncc(F)c(N(C)c3ccc4c(C)[nH]nc4c3)n2)ccc1OCC1CCNCC1 | 8.8 (≈ 4.56 µg/mL)
84 | Cc1ccc(N2C(=O)NC(=O)C(=Cc3ccc[nH]3)C2=O)cc1 | 8.8 (≈ 2.6 µg/mL)
85 | CCc1nc2ccccc2n1CC(O)COc1cc(C)ccc1Cl (stereo not given) | 9.7 (≈ 3.34 µg/mL)
86 | Cc1cc(Oc2cccc(CN3CCCC3)c2)nc(NCCc2ccccc2)n1 | 8.9 (≈ 3.46 µg/mL)
87 | Cc1cc(C)c2nc(N3CCN(C)CC3)cc(C)c2c1 | 8.9 (≈ 2.4 µg/mL)
88 | CC(C)n1cc(CN2CCCC(C(=O)c3ccc(-c4ccccc4)cc3)C2)cn1 (stereo not given) | 8.9 (≈ 3.45 µg/mL)
89 | CC1CN(Cc2cccc(C(=O)NCc3ccc(F)c(-c4cccc(CN5CCN[C@@H](C)C5)c4)c3)c2)C(C)CN1 (stereo not given in full) | 8.9 (≈ 4.84 µg/mL)
90 | O=C(Nc1nnc(-c2cc(Cl)ccc2Cl)o1)c1ccc(Br)s1 | 8.9 (≈ 3.73 µg/mL)
91 | N#Cc1nc(-c2ccccc2)oc1S(=O)(=O)c1ccc(Cl)cc1 | 3.6 (≈ 1.24 µg/mL)
92 | CC(=O)NCCn1c(Sc2ccnc(N3CCN(c4ccncc4)CC3)n2)nnc1-c1ccccc1 | 4 (≈ 2.01 µg/mL)
93 | CCOc1ccccc1NC(=O)C(Cc1ccccc1)NC(=O)c1cccs1 (stereo not given) | 9 (≈ 3.55 µg/mL)
94 | Cc1cc(C)c2nc3c(cc2c1)CN(Cc1ccco1)C(=O)O3 | 9 (≈ 2.78 µg/mL)
95 | O=C(NC1CCN(Cc2ccsc2)C1)c1sccc1-c1cccc(Cl)c1 (stereo not given) | 9 (≈ 3.63 µg/mL)
96 | Cc1nc2ccccn2c1C(=O)NCc1cccs1 | 3.9 (≈ 1.06 µg/mL)
97 | CN1CCN(c2cc(-c3ccncc3)nc(-c3ccccc3)n2)CC1 | 8.5 (≈ 2.82 µg/mL)
98 | CSc1ccc(CC(=O)Nc2nc(-c3ccccn3)cs2)cc1 | 9.1 (≈ 3.11 µg/mL)
99 | COc1ccc(CNC(=O)c2cnn3c2NC(c2ccc(OC)cc2)CC3C(F)(F)F)cc1 (stereo not given) | 9.1 (≈ 4.19 µg/mL)
100 | CCN(Cc1ccc(Cl)s1)C(=O)CSc1nc(NC)c2ccccc2n1 | 9.1 (≈ 3.7 µg/mL)
101 | c1ccc2nc(CN3CCC4(CC3)OCCc3sccc34)ccc2c1 | 9.1 (≈ 3.19 µg/mL)
102 | Cc1ccc(O)cc1Nc1ccnc2ccc(-c3cccc(CNCCN(C)C)c3)cc12 | 9.1 (≈ 3.88 µg/mL)
103 | Oc1nc(-c2ccccn2)nc(C(F)(F)F)c1Br | 9.6 (≈ 3.07 µg/mL)
104 | CNC1=NC(=O)[C@H]([C@H](C)c2c[nH]c3ccccc23)O1 [INDOMYCIN] | 5 (≈ 1.29 µg/mL)
105 | Cn1cc(NC(=O)c2cc(NC(=O)CNC(=N)N)cn2C)cc1C(=O)NCCC(=N)N [NETROPSIN CHLORIDE] | 3.6
